Assays:
[1] = system: cold allodynia in Bennett animals; assay: Bennett model (chronic constriction injury), cold allodynia on 4° C. cold metal plate; assay type: in vivo, rat; conditions: for ED50: Rattus norvegicus
Procedure: The effectiveness in treating neuropathic pain was investigated in the Bennett model (chronic constriction injury; Bennett and Xie, 1988, Pain 33: 87-107).
(§1) Sprague-Dawley rats weighing 140-160 g are provided with four loose ligatures of the right sciatic nerve under nembutal narcosis. The animals develop a hypersensitivity in the paw innervated by the damaged nerve, which after a healing phase of one week is quantified over about four weeks by means of a 4° C. cold metal plate (cold allodynia). The animals are observed for two minutes on this plate and the number of retractive movements of the damaged paw are measured. The effect of the substance is determined with reference to the base value before application of the substance, at four different times over a period of one hour(15, 30, 45 and 60 minutes after application) and the resultant area under the curve (AUD) as well as the inhibition of cold allodynia at the individual measurement points is expressed in percent effect with reference to the vehicle control (AUD) and to the initial value (individual measurement points). The cohort size is n=10.

[2] = system: tactile allodynia in Chung animals; assay: Chung model (spinal nerve ligature), tactile allodynia, electronic von Frey; assay type: in vivo; conditions: Rattus norvegicus, ip, 0.5 h; rats, i.p., 30 minutes after administration
Procedure: Spinal nerve ligatures according to Kim & Chung (1992 Pain 50, 355-363) were applied to the left L5/L6 spinal nerves of male Spraque-Dawley rats. Four to six days after the operation the tactile threshold baseline (withdrawal threshold) was measured on the ipsilateral and contralateral rear paw by an electronic von Frey anaesthesiometer (IITC Life Science, USA). After the test and measurement of the baseline, morphine, gabapentin and some of the aforementioned compounds used according to the invention were administered. The tactile withdrawal thresholds were measured 30 minutes after the administration. The results are expressed as ED50 and % maximal possible effect (% MPE) on the ipsilateral side, in which the baseline is taken as 0% and the withdrawal threshold of a control group is taken as 100% MPE.

[3] = system: cold allodynia in morphine-tolerant Bennett animals; assay: Bennett model cold allodynia in morphine-tolerant animals; assay type: in vivo, rat
Procedure: as §1
The underlying question is the action of a test substance having a presumably opioid action mechanism in patients who are tolerant or treatment-resistant to morphine. […] The action of test substances in naive (non-morphine-tolerant) animals and morphine-tolerant animals is compared in Table 4. […] Morphine [10 mg/kg i.p.], Compound 9 [10 and 21.5 mg/kg i.p.], Compound 10 [0.46 and 1 mg/kg i.p.], Compound 4 [21.5 mg/kg i.p.] and Compound 11 [21.5 mg/kg i.p.] were tested analogously to Example 1.

[4] = system: neuropathic pain; assay: Tests of substances together with naloxone in treating neuropathic pain; assay type: in vivo
[5] = system: mechanical hyperalgesia in diabetic animals; assay: Streptozotocin diabetic neuropathy, mechanical hyperalgesia (Randall and Sellito); assay type: in vivo, rat; conditions: diabetic rats; for ED50: Rattus norvegicus, ip, i.p., read-out: Mechanical hyperalgesia ED50 (95% confidence region)
Procedure: Male Sprague-Dawley rats weighing 160-180 g received an intra-peritoneal injection of streptozotocin (75 mg/kg body weight) dissolved in pH 4.6 citrate buffer. One week later diabetic animals were identified by measuring the blood glucose level, and those with a blood glucose level of ≧17 mM were included in the study. Three and four weeks after administration of streptozotocin the mechanical reaction threshold was measured in diabetic animals by the method of Randall and Sellito (1957 Arch. Int. Pharmacody. […]:409-419) before (pre-test) and at various times after administration of the test substance or vehicle (post-test). […] The maximum pressure exerted on the rear paw was 250 g. The end point of the mechanical reaction threshold in grams was determined based on the reaction of the animal (withdrawal of the rear paw, vocalisation or evasive reaction). The size of the cohort in the individual dose stages was n=10. The maximum possible response in percent (% MPE=% of maximum possible effect) was calculated according to the formula:
% MPE=(post-test−pre-test)/(250−pre-test)×100.
ED50 values (dose at which 50% maximum inhibition occurred) were determined by regression analysis from the % MPE values at the time of the maximum effect.

Work on `CC[C@](O)(c1cccc(OC)c1)[C@H](C)CN(C)C` (racemic) [Compound 1, (2RS,3RS)-1-dimethylamino-3-(3-methoxyphenyl)-2-methylpentan-3-ol] yielded an ED50 ([1]; ip, rats) of 11.1 mg/kg and an ED50 [2] of 10.1 mg/kg.

In the case of `C[C@H](CN(C)C)[C@@](C)(O)c1cccc(O)c1` (racemic) [Compound 5, (1RS,2RS)-3-(3-dimethylamino-1-hydroxy-1,2-dimethylpropyl)-phenol], the ED50 ([1]; ip, rats) is reported as 15 mg/kg.

For `CC[C@](O)(c1cccc(C(F)F)c1)[C@H](C)CN(C)C` (racemic) [Compound 8, (2RS,3RS)-3-(difluoromethylphenyl)-1-dimethylamino-2-methylpentan-3-ol], the “Cold allodynia ED50” value ([1]; rats, i.p.) was 17.1 mg/kg.

With `CC[C@@](O)(c1cccc(OC)c1)[C@@H](C)CN(C)C` [Compound 2, (2S,3S)-1-dimethylamino-3-(3-methoxyphenyl)-2-methylpentan-3-ol] the ED50 ([1]; ip, rats) was 26 mg/kg.

With `CC[C@](O)(c1cccc(OC)c1)[C@H](C)CN(C)C` [Compound 3, (2R,3R)-1-dimethylamino-3-(3-methoxyphenyl)-2-methylpentan-3-ol] the ED50 ([1]; ip, rats) was 9.2 mg/kg.

`C[C@@H](CN(C)C)[C@](C)(O)c1cccc(O)c1` [Compound 6, (1S,2S)-3-(3-dimethylamino-1-hydroxy-1,2-dimethylpropyl)phenol] gave an ED50 ([1]; ip, rats) of 32.6 mg/kg and an ED50 [2] of 4.65 mg/kg.

In the case of `C[C@H](CN(C)C)[C@@](C)(O)c1cccc(O)c1` [Compound 7, (1R,2R)-3-(3-dimethylamino-1-hydroxy-1,2-dimethylpropyl)phenol], the ED50 ([1]; ip, rats) is reported as 11.1 mg/kg.

For `CC[C@H](c1cccc(O)c1)[C@H](C)CN(C)C` [Compound 10, (1S,2S)-3-(3-dimethylamino-1-ethyl-2-methylpropyl)phenol], the “Cold allodynia (% AUD) Naïve animals” value ([1]; 0.46 mg/kg i.p.) was 29.0 % AUD, the “Cold allodynia (% AUD) Naïve animals” value ([1]; 1 mg/kg i.p.) was 42.7 % AUD and the “Cold allodynia (% AUD) Naïve animals” value ([1]; 2.15 mg/kg i.p.) was 59.2 % AUD. For the same molecule, the ED50 ([1]; ip, rats) was 1.2 mg/kg, the ED50 [2] was 1.5 mg/kg and the “Cold allodynia (% AUD) Morphine-tolerant animals” value ([3]; 0.46 mg/kg i.p.) was 22.9 % AUD. The “Cold allodynia (% AUD) Morphine-tolerant animals” value ([3]; 1 mg/kg i.p.) was 39.9 % AUD, the “Cold allodynia (% AUD) Morphine-tolerant animals” value ([3]; 2.15 mg/kg i.p.) was 13.0 % AUD and the “effectiveness in treating neuropathic pain with naloxone” value [4] was “effective”.

Work on `CC(CN(C)C)=C(C)c1cccc(O)c1` [Compound 14, 3-(3-dimethylamino-1,2-dimethylpropenyl)-phenol] yielded an ED50 ([1]; ip, rats) of 3.6 mg/kg.

With `NCC1(CC(=O)O)CCCCC1` [Gabapentin, reference compound] the ED50 ([1]; po, rats) was 214 mg/kg, the ED50 [2] was 92.6 mg/kg and the ED50 [5] was 225 mg/kg. The “Mechanical hyperalgesia Maximum effect in % MPE” value ([5]; 464 mg/kg i.p.) was 80% (464 mg/kg) % MPE.

With `CN1CC[C@]23c4c5ccc(O)c4O[C@H]2[C@@H](O)C=C[C@H]3[C@H]1C5` [Morphine, reference compound] the “Cold allodynia (% AUD) Naïve animals” value ([1]; 10 mg/kg i.p.) was 78.6 % AUD, the ED50 ([1]; ip, rats) was 7.1 mg/kg and the ED50 [2] was 4.6 mg/kg. For the same molecule, the ED50 [5] was 3 mg/kg, the “Mechanical hyperalgesia Maximum effect in % MPE” value ([5]; 10 mg/kg i.p.) was 89% (10 mg/kg) % MPE and the “Cold allodynia (% AUD) Morphine-tolerant animals” value ([3]; 10 mg/kg i.p.) was −22.0 % AUD. The “anti-allodynic action (cold allodynia) in morphine-tolerant animals” value ([3]; i.p.) was “no longer exhibits any effect” and the “effectiveness in treating neuropathic pain with naloxone” value [4] was “effective”.

In the case of `COc1cccc(C2(O)CCCCC2CN(C)C)c1` (stereo not drawn) [Tramadol], the ED50 [5] is reported as 9.2 mg/kg and the “Mechanical hyperalgesia Maximum effect in % MPE” value ([5]; 21.5 mg/kg i.p.) is reported as 86% (21.5 mg/kg) % MPE.

From patent US20080269326A1, “Use of 1-Phenyl-3-Dimethylamino-propane Compounds for Treating Neuropathic Pain” (GRUENENTHAL GmbH, priority 2007, published 2008)
